# Assay results taken from patent publication US20020025940A1, “Methods and compositions for sensitive and rapid, functional identification of genomic polynucleotides and use for cellular assays in drug discovery” (Aurora Biosciences Corporation, priority 1997, published 2002).
# Read-outs that look alike come from different tables or passages of the source.
# How the values were obtained:
# [1] = test system: BLEC integrated RBL-1 cell clones; test: FACS of BLEC-1 integrated RBL-1 clones after ionomycin stimulation (CCF2/AM blue/green); assay type: cell-based, rat
# Method: This library of BLEC-1 integrated clones was loaded with the fluorescent substrate of BL (CCF-2-AM) by adding 10 microM CCF-2-AM in HBSS containing […] at pH 7.1 and 1% glucose. After a 1 hour incubation at 22° C. cells were washed with HBSS and viewed upon excitation with 400 nm light using a 435 nm long pass emission filter. Under these assay conditions 10% of the cells were blue fluorescent indicating they were expressing beta-lactamase.
# Fluorescent activated cell sorting of multi-clonal populations of RBL-1 gene integrated clones was used to identify clones with regulated BL gene expression. A BL non-expressing population of cells was isolated by sorting a library of BLEC-1 integrated clones generated by transfection of RBL-1 cells as described in Example 2. 180,000 clones expressing little or no BL were isolated by sorting for clones with a low blue/green ratio (R1 population), as shown in FIG. 4A. This population of clones was grown for seven days and resorted by FACS to test the population's fluorescent properties. […] It is also clear that the total population has shifted towards more green cells compared to the parent population, as shown in FIG. 4A. There are, however, cells with a high blue/green ratio showing up in the green sorted population. These may represent clones in which the BLEC has integrated into a differentially regulated gene such as a gene whose expression changes throughout the cell cycle.
# The population of RBL-1 clones shown in FIG. 4B was stimulated by addition of 1 uM ionomycin for 6 hours and resorted to identify clones which had the BLEC integrated into a gene which is inducible by increasing intracellular calcium. A greater percentage of blue clones were present in all three of the blue sub-population (R4, R2, R5) in the ionomycin stimulated when compared to the unstimulated population.
# [2] = test system: T-cell receptor pathway (clone J32-6D4)
# Text: Thus, this clone was used to identify chemicals that inhibit this T-cell receptor pathway that is also stimulated by the PKC activator PMA.
# [3] = test system: mouse L-cells (mouse fibroblast cell line); test: Proliferation assay (MTT), mouse L-cells; assay type: cell-based; settings: concentrations up to 10 microM, five days
# Method: (§1) Chemicals A and B were further tested for their anti-proliferative effect on Jurkat cells and mouse L-cells (mouse fibroblast cell line). […] Proliferation assays were performed by seeding about 20,000 cells unactivated by PHA into a 24 well plate. These cells were contacted with chemicals and were then incubated at 37° C. for five days. The cells were contacted with 10 micrograms/ml of MTT (Sigma Chemical Co., MO) for three hours. The cells were then collected, resuspended in isopropanol, and the absorbance was read in a plate reader at a wavelength of 570 nm with a background subtraction at a reading at a wavelength of 690 nm (see, Carmichael et al., Cancer Res. 47:936 (1987)).
# [4] = test system: Jurkat cells; test: Proliferation assay (MTT), Jurkat cells; assay type: cell-based, human; settings: concentrations up to 10 microM, five days
# Method: as §1
# [5] = 10 microM chemical, 1 microgram/ml of PHA for 18 hours
compound,measurement,setting,value
"C[C@H](CCC(=O)O)C[C@H](C)C[C@H](C)C(=O)/C=C(\O)[C@H](C)C[C@H](C)C/C=C/[C@@H](C)[C@@H](O)[C@@H](C)[C@@H](O)C[C@@H]1CC[C@@](C)([C@H]2CC[C@@](C)([C@@H](C)O)O2)O1 [Ionomycin, ionomycin]","Ratio +Ion/−Ion, sort window R4 (blue)",[1]; 1 uM ionomycin vs unstimulated,2.2
same,"Ratio +Ion/−Ion, sort window R5",[1]; 1 uM ionomycin vs unstimulated,1.6
same,"Ratio +Ion/−Ion, sort window R6 (green)",[1]; 1 uM ionomycin vs unstimulated,.9
same,Stimulated % of cells in sort window R4 (blue),"[1]; 1 uM ionomycin, 6 hours, R4 highest blue/green ratio",.24%
same,Stimulated % of cells in sort window R5,"[1]; 1 uM ionomycin, 6 hours, R5 lower blue/green ratio",2.5%
same,Stimulated % of cells in sort window R6 (green),"[1]; 1 uM ionomycin, 6 hours, R6 green",61.64%
[O-][n+]1ccccc1SSc1cccc[n+]1[O-] [Dipyrithione],% Inhibition of PHA activation of Clone J32-6D4,[2]; [5],70%
C[C@H]1O[C@@H](O[C@H]2[C@@H](O)C[C@H](O[C@H]3[C@@H](O)C[C@H](O[C@H]4CC[C@@]5(C)[C@H](CC[C@@H]6[C@@H]5C[C@@H](O)[C@]5(C)[C@@H](C7=CC(=O)OC7)CC[C@]65O)C4)O[C@@H]3C)O[C@@H]2C)C[C@H](O)[C@@H]1O [Digoxin],% Inhibition of PHA activation of Clone J32-6D4,[2],86%
Nc1nc2nc[nH]c2c(=S)[nH]1 [Thioguanine],% Inhibition of PHA activation of Clone J32-6D4,[2]; [5],50%
CCCCC1C(=O)N(c2ccccc2)N(c2ccc(O)cc2)C1=O (stereo not shown) [Oxyphenbutazone],% Inhibition of PHA activation of Clone J32-6D4,[2]; [5],75%
O=C(O)/C=C/c1ccc2ccccc2n1 [chemical B],anti-proliferative effect on L-cells,[3],no anti-proliferative effect
same,anti-proliferative effect on Jurkats,[4],no anti-proliferative effect
same,IC50,"[2]; Homo sapiens, T-cell, read-out: IC50 of the inhibition of PHA activation of beta-lactamase expression",~200 nM
C[C@@H]1O[C@@H](O[C@H]2C[C@@H](O)[C@]3(CO)[C@H]4[C@H](O)C[C@]5(C)[C@@H](C6=CC(=O)OC6)CC[C@]5(O)[C@@H]4CC[C@]3(O)C2)[C@H](O)[C@H](O)[C@H]1O [Quabain],% Inhibition of PHA activation of Clone J32-6D4,[2]; [5],50%
CN(C)c1ccc(C(=C2C=CC(=[N+](C)C)C=C2)c2ccc(N(C)C)cc2)cc1 [Gentian Violet],% Inhibition of PHA activation of Clone J32-6D4,[2]; [5],73%
C[C@H]1O[C@@H](O[C@H]2[C@@H](O)C[C@H](O[C@H]3[C@@H](O)C[C@H](O[C@H]4CC[C@@]5(C)[C@H](CC[C@@H]6[C@@H]5CC[C@]5(C)[C@@H](C7=CC(=O)OC7)CC[C@]65O)C4)O[C@@H]3C)O[C@@H]2C)C[C@H](O)[C@@H]1O [Digitoxin],% Inhibition of PHA activation of Clone J32-6D4,[2]; [5],77%
